Patent US11656182B2, “Method, composition, and chip for detecting analyte in blood sample” (TERUMO KABUSHIKI KAISHA, priority 2016, dated 2023)
≈ marks a conversion by molar mass, not a printed value. Entries after “also recorded” stand apart in the source; their conditions may differ. Read-outs that look alike come from different tables or passages of the source.

What was measured:
[1] = Spectrum analysis of detection chip before blood sample is deposited (transmittance of refractive index adjuster at 650 nm); type: physicochemical; details: absorption peak wavelength of WST-4
Description: The outline of an evaluation system used in spectrum analysis will be described below. Further, the outline of the evaluation system is illustrated in FIG. 6.
Light source: Halogen light source SPL-2H (KLV Co., Ltd.)
Conforming fiber: Core diameter=200μ or more
Spectrometer: Small fiber optical spectrometer USB2000+(Ocean Optics, Inc.)
The spectrum analysis was performed using the blood glucose value detection chips obtained in each of Embodiments and Comparative Embodiments. Incidentally, since the spacer thickness of the blood glucose value detection chip is 50 μm, the optical path length becomes 50 μm. […] Incidentally, the correction of the absorbance was performed by dividing the absorbance (actual measurement value) in each measurement wavelength by the value of the clearance (CL) (μm) actually measured in each chip and further multiplying the obtained value by […].
In the conditions of respective Embodiments and Comparative Embodiments, the value of absorbance at 650 nm (the absorption peak wavelength of WST-4) measured using the chip before the blood sample is deposited is not substantially different from the absorbance value measured by dissolving the refractive index adjuster in water and setting an optical path length of 50 μm. Therefore, from the transmittance curve before the blood sample is deposited, the transmittance of the refractive index adjuster in 650 nm that is the absorption peak wavelength of WST-4 was obtained. Incidentally, in Table 1, “⊙” represents that the transmittance at 650 nm is 60% or more and 100% or less, “◯” represents that the transmittance at 650 nm is 40% or more and less than 60%, and “X” represents that the transmittance at 650 nm is less than 40%.

[2] = Precipitates by visual inspection before drying after coating film formation; type: physicochemical; details: coating liquid
Description: In the production step of the blood glucose value detection chip, existence of precipitates was confirmed by visual inspection before drying after coating film formation.

[3] = Degree of solubility with respect to water at 20° C.; type: physicochemical
[4] = Solubility observed in preparation of coating liquid and chip (Comparative Embodiments)
Description: Further, the solubility with respect to the blood sample was low, so that the spectrum analysis was not able to be performed.

[5] = Refractive index increasing capability of refractive index adjuster (refractometer, aqueous solutions); type: physicochemical; details: increase amount of the refractive index per 1 [mg/ml]; inclination of approximate straight line, aqueous solutions 0 to 350 mg/ml
Description: Aqueous solutions prepared to have a plurality of concentrations within a range of 0 to 350 mg/ml were prepared for the respective refractive index adjusters. The refractive index of each aqueous solution was obtained with a refractometer PAL-RI (ATAGO CO., LTD.). A graph was created in which the concentration of each aqueous solution is plotted on the horizontal axis and the refractive index is plotted for each refractive index adjuster on the vertical axis, and the inclination of the approximate straight line was obtained (a value of “Refractive index increasing capability” in Table 1 indicates an increase amount of the refractive index per 1 [mg/ml], and a larger inclination indicates higher refractive index increasing capability of the refractive index adjuster). Incidentally, “unmeasurable” in Table 1 means that an aqueous solution could not be prepared due to generation of precipitates.

red blood cell = assay: Red blood cell reducing capability of refractive index adjuster (hematocrit value change); type: cell-based; details: 50 mM in blood sample, hematocrit value 40 before addition, 5 minutes after mixing
Description: 400 μL of blood plasma was recovered from 1.0 ml of blood sample (hematocrit value: 40). A refractive index adjuster was added to 400 μL of the recovered blood plasma to have a concentration of 125 mM. The blood plasma after addition of the refractive index adjuster combined with the original blood sample and mixed by inverting (the concentration of the refractive index adjuster in the blood sample becoming 50 mM). The sample after 5 minutes from mixing by inverting was filled in a hematocrit tube and was separated by centrifugation with a hematocrit centrifuge at 11×10^3 rpm for 5 minutes. A hematocrit value (Ht) after separation by centrifugation was read. […] Incidentally, “unmeasurable” in Table 1 means that the degree of solubility of the refractive index adjuster was low so that measurement could not be performed.

[6] = chip with coating liquid, blood sample

Precipitates [2]	Degree of solubility (class) [3]	solubility with respect to the blood sample [4]	solubility with respect to water [4]	Refractive index increasing capability [5]	Degree of solubility [3] [mM]	solubility [3] [mM]	Compound	Transmittance 650 nm (Coloring reagent absorption peak wavelength) [1]	Red blood cell reducing capability (ΔHt) (red blood cell)	solubility with respect to the blood sample [4, 6]
Absent				0.000277	487		O=C([O-])C1=NN(c2ccc(S(=O)(=O)[O-])cc2)C(=O)C1N=Nc1ccc(S(=O)(=O)[O-])cc1.[Na+].[Na+].[Na+] (centres unmarked) [Acid Yellow 23]	⊙ (the transmittance at 650 nm is 60% or more and 100% or less)	8.2	
Absent				0.000259	340		Acid Fuchsin [reference compound]	×	14.3	

Continued, compound first:

Compound	Precipitates [2]	Degree of solubility (class) [3]	solubility with respect to the blood sample [4]	solubility with respect to water [4]	Refractive index increasing capability [5]	Degree of solubility [3] [mM]	solubility [3] [mM]	Transmittance 650 nm (Coloring reagent absorption peak wavelength) [1]	Red blood cell reducing capability (ΔHt) (red blood cell)	solubility with respect to the blood sample [4, 6]
CCN(CC)c1ccc(C(=C2C=CC(=[N+](CC)CC)C=C2)c2ccc(S(=O)(=O)[O-])cc2S(=O)(=O)[O-])cc1.[Na+] [Acid Blue 1, reference compound]	precipitates were generated; also recorded: Present	×	low	low				×		
O=S(=O)([O-])c1ccc2c(N=Nc3ccc(S(=O)(=O)[O-])c4ccccc34)c(O)c(S(=O)(=O)[O-])cc2c1.[Na+].[Na+].[Na+] [Acid Red 27]	Absent				0.000381	83		◯ (the transmittance at 650 nm is 40% or more and less than 60%)	6.7	
O=S(=O)(O)c1cccc(S(=O)(=O)O)c1 [DSB, 1,3-benzene disulfonate]	Absent				0.000126			⊙ (the transmittance at 650 nm is 60% or more and 100% or less)	9.0	
O=S(=O)(O)c1cc(S(=O)(=O)O)c2c(/N=N/c3ccccc3)c(O)ccc2c1 [Orange G]	Absent				0.000296	220		⊙ (the transmittance at 650 nm is 60% or more and 100% or less)	1.9	
OC[C@H]1O[C@H](O[C@]2(CCl)O[C@H](CCl)[C@@H](O)[C@@H]2O)[C@H](O)[C@@H](O)[C@H]1Cl [Sucralose, sucralose]	Absent				0.000129		820 (≈ 326 mg/mL)	⊙ (the transmittance at 650 nm is 60% or more and 100% or less)	0.5	
OC[C@H]1O[C@H](O[C@H]2O[C@H](CO)[C@@H](O)[C@H](O)[C@H]2O)[C@H](O)[C@@H](O)[C@@H]1O [Trehalose, trehalose]	Absent				0.000109		200 (≈ 68.5 mg/mL)	⊙ (the transmittance at 650 nm is 60% or more and 100% or less)	3.5	
O=[N+]([O-])c1ccc(-[n+]2nc(-c3ccc(S(=O)(=O)[O-])cc3S(=O)(=O)[O-])nn2-c2ccc(I)cc2)cc1.[Na+] [Wst-1, 2-(4-iodophenyl)-3-(4-nitrophenyl)-5-(2,4-disulfophenyl)-2H-tetrazolium sodium salt, reference compound]	Absent				0.000174			×		low
COc1cc([N+](=O)[O-])ccc1-n1nc(-c2ccc(S(=O)(=O)[O-])cc2S(=O)(=O)[O-])n[n+]1-c1ccc([N+](=O)[O-])cc1.[Na+] [Wst-8, 2-(2-methoxy-4-nitrophenyl)-3-(4-nitrophenyl)-5-(2,4-disulfophenyl)-2H-tetrazolium sodium salt, reference compound]	Absent				0.000189			×		low
